According to US9067889B2, “Biphenylcarboxamides as ROCK kinase inhibitors” (Amakem NV, priority 2011, dated 2015):

Assays:
[1] = Stability assay in human plasma; type: in vitro ADME; details: 1 μM compound in human plasma, LC-MS/MS
Protocol: C.2.1. Stability Assay in Human and/or Rat Plasma
Compounds are incubated at a concentration of 1 μM in human plasma (or rat, mice, dog, monkey, minipig or rabbit). Samples are taken at fixed time points and the remnant of compound is determined by LC-MS/MS after protein precipitation.

[2] = Stability assay in rabbit aqueous humor; type: in vitro ADME; details: 1 μM compound in rabbit aqueous humor, LC-MS/MS
Protocol: C.2.2. Stability Assay in Rabbit Aqueous Humor
Compounds are incubated at a concentration of 1 μM in rabbit aqueous humor (AH). Samples are taken at fixed time points and the remnant of compound is determined by LC-MS/MS after protein precipitation.

## COC(=O)Cc1cccc(NC(=O)c2cccc(-c3cc(C(=O)Nc4ccncc4F)ccc3CN)c2)c1 [Compound 1]
[1]
  t1/2(min) in human plasma: <60 min
[2]
  t½ rabbit AH: 58 min
